In patent US4812458A, “6,7-disubstituted-2,3-dihydroxyquinoxaline compounds, pharmaceutical compositions thereof, and their use as neuroleptics” (A/S Ferrosan, priority 1987, dated 1989):
≈ marks a conversion by molar mass, not a printed value.

Assays:
[1] = target: quisqualate type receptors (rat cerebral cortical membrane homogenate); test: 3H-AMPA binding (displacement of 3H-AMPA from the quisqualate type receptors); details: displacement of 50% of specific 3H-AMPA binding; 5 nM 3H-AMPA, 0° C., 30 min, pH 7.1
Method: (§1) The pharmacological properties of the compounds of the present invention can be illustrated by determining their capability for displacing radioactively labelled 2-amino-3-hydroxy-5-methyl-4-isoxazolepropionic acid (AMPA) from the quisqualate type receptors.
The displacement activity of the compounds may be shown by determining the IC50 value which represents the concentration (μg/ml) which causes a displacement of 50% of the specific binding of ^3 H-AMPA.
500 μl of thawed rat cerebal cortical membrane homogenate in Tris-HCl (30 mM), CaCl2 (2.5 mM) and KSCN ([…]) pH 7.1 were incubated at 0° C. for 30 min. with 25 μl ^3 H-AMPA (5 nM final concentration) and the test compound and buffer. Nonspecific binding was determined by incubation with L-glutamic acid (600 μM final concentration). The binding reaction was terminated by adding 5 ml of ice-cold buffer followed by filtration through Whatman GF/C glass fibre filters and 2×5 ml wash with ice-cold buffer. Bound radioactivity was measured by scintillation counting. IC50 was determined by Hill analysis of at least four concentrations of test compound.

[2] = system: quisqualic acid stimulated Na+-efflux from rat striatal slices; test: Antagonism of quisqualic acid induced 22Na+-release; assay type: cell-based; details: concentration reducing quisqualic acid (2 μg/ml) stimulated 22Na+ efflux rate by 50%
Method: as §1
The antagonism is measured by determining the EC50 value which represents the concentration which reduces the rate of quisqualic acid stimulated sodium efflux by 50%.
Antagonism of quisqualic acid induced ^22 Na^+ -release
Slices from rat striatum were preincubated with ^22 Na^+ for 30 min. After the ^22 Na^+ loading period, the slices were successively and every minute transferred through a series of tubes, each containing 1.5 ml of a non-radioactive physiological solution saturated with O2, with the help of a basket shaped sieve. Quisqualic acid (2 μg/ml) was present in the last 5 tubes and the compound to be tested was present in the same 5 tubes plus 3 tubes before. The amount of radioactivity in each washout tube as well as that left in the slices at the end of the experiment was measured by scintillation counting. EC50 -values were calculated by Hill analysis from at least three different concentrations of test compound as the concentration of test compound which reduces the efflux rate of ^22 Na^+ -ions to 50% of the efflux rate in the absence of test compound.

| SMILES | IC50 [1] | EC50 [2] |
| --- | --- | --- |
| N#Cc1cc2nc(O)c(O)nc2cc1C(F)(F)F [Example 5, 6-Cyano-2,3-dihydroxy-7-trifluoromethylquinoxaline] | 0.39 µg/mL (≈ 1.53 µM) |  |
| N#Cc1cc2nc(O)c(O)nc2cc1[N+](=O)[O-] [Example 2, 6-Cyano-2,3-dihydroxy-7-nitroquinoxaline] | 0.06 µg/mL (≈ 0.258 µM) | 0.7 µg/mL (≈ 3.02 µM) |
| N#Cc1cc2nc(O)c(O)nc2cc1Cl [Example 8, 6-Chloro-7-cyano-2,3-dihydroxyquinoxaline] | 0.82 µg/mL (≈ 3.7 µM) |  |
| O=[N+]([O-])c1cc2nc(O)c(O)nc2cc1Cl [Example 7, 6-Chloro-2,3-dihydroxy-7-nitroquinoxaline] | 0.43 µg/mL (≈ 1.78 µM) | 3 µg/mL (≈ 12.4 µM) |
| [N-]=[N+]=Nc1cc2nc(O)c(O)nc2cc1[N+](=O)[O-] [Example 3, 6-Azido-2,3-dihydroxy-7-nitroquinoxaline] | 0.26 µg/mL (≈ 1.05 µM) | 3 µg/mL (≈ 12.1 µM) |
